In general, fold induction refers to the signal under treatment as a multiple of the control signal.

For one compound, fold induction and insect moulting activity results are on record in patent EP0598011B1, “ECDYSTEROID DEPENDENT REGULATION OF GENES IN MAMMALIAN CELLS” (GENENTECH, INC., priority 1991, dated 1993).

For one data set, the target named is T1, GXEc (Drosophila melanogaster, UniProt P34021).
T1 construct: expressed in transfected cells
T1 sequence (P34021 329-878): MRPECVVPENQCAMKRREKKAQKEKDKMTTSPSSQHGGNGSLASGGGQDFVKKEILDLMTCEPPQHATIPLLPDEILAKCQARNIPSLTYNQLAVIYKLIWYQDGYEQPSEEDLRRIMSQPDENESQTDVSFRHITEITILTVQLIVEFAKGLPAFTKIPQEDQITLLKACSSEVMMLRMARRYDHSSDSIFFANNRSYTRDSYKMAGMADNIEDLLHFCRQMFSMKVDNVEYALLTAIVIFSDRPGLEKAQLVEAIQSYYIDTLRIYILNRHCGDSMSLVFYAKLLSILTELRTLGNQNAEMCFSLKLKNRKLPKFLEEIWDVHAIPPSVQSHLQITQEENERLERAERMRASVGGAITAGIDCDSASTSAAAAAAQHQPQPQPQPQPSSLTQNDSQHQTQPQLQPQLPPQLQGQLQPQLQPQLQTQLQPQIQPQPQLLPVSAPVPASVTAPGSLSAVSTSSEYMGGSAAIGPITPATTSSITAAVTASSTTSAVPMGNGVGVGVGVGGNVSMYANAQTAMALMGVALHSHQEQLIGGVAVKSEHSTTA
Kind of data set: Lex-operator reporter X4C-33CO with GXEc. The settings on record: receptor GXEc, SD in parentheses. In kind it is cell-based. From the text: (§1) Such fusion constructs are expected to be useful in regulating the expression of exogenous genes introduced into transgenic mammals or mammalian cells. I next determined if the DHR23α ligand-binding domain could be used to regulate the activity of a DNA-binding domain not normally expressed in mammalian cells. I constructed the chimeric gene GLxEc by replacing the sequences coding for the GR DNA-binding domain in the GGEc fusion with those encoding the DNA-binding domain of the Escherichia coli LexA repressor (J. W. Little and S. A. Hill, Proc. Natl. Acad. Sci. U.S.A. 82, 2301 [1985]) (Fig. 4). A reporter gene, X4C-33CO was constructed that contains 4 copies of a 26-bp lex operator (R. Brent and M. Ptashne, Nature 312, 612 [1984]) at position -33 of the CMV promoter. GLxEc had no effect on the expression of a OC-33CO, a reporter gene lacking the lex operator (Fig. 6B).
(§2) Illustrated in Table 2 is the transcriptional activation by receptor-LexA fusion proteins. Effector plasmids encoding the indicated receptor proteins were transfected with a reporter gene either containing (X4C-33CO) or lacking (OC-33CO) lex-operators. […] The cells were incubated either with (+) or without (-) muristerone A. The fold induction was determined as described previously; the standard deviations are shown in parenthesis.

The test system of a further data set is OC-33CO. Kind of data set: Reporter OC-33CO lacking lex-operators, control effector plasmid without receptor cDNA. In kind it is cell-based. As to conditions: SD in parentheses.
From the text: as §1, §2

The test system of a further data set is insect. The settings on record: in vivo; cited from earlier work.
The target of the next data set is EcEcEc (Drosophila melanogaster, UniProt P34021). Kind of data set: Lex-operator reporter X4C-33CO with EcEcEc (DHR23α). Type of data set: cell-based. Also noted: To isolate the full-length DHR23α clones; expressed in transfected cells. As to conditions: receptor EcEcEc, SD in parentheses.
Sequence of EcEcEc (P19793 whole entry): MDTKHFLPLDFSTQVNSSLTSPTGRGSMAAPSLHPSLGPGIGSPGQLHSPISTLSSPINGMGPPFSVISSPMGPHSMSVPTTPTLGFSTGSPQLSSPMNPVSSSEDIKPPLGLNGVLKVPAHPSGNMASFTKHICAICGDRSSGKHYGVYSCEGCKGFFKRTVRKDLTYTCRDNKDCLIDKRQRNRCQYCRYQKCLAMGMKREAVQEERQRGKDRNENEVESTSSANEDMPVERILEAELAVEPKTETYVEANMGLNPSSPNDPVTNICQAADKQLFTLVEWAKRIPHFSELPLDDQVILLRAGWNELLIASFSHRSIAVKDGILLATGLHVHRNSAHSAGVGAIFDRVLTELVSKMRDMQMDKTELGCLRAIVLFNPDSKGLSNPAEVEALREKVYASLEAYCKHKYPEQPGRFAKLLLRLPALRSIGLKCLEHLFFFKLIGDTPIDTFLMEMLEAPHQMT
Sequence of EcEcEc (P34021 whole entry): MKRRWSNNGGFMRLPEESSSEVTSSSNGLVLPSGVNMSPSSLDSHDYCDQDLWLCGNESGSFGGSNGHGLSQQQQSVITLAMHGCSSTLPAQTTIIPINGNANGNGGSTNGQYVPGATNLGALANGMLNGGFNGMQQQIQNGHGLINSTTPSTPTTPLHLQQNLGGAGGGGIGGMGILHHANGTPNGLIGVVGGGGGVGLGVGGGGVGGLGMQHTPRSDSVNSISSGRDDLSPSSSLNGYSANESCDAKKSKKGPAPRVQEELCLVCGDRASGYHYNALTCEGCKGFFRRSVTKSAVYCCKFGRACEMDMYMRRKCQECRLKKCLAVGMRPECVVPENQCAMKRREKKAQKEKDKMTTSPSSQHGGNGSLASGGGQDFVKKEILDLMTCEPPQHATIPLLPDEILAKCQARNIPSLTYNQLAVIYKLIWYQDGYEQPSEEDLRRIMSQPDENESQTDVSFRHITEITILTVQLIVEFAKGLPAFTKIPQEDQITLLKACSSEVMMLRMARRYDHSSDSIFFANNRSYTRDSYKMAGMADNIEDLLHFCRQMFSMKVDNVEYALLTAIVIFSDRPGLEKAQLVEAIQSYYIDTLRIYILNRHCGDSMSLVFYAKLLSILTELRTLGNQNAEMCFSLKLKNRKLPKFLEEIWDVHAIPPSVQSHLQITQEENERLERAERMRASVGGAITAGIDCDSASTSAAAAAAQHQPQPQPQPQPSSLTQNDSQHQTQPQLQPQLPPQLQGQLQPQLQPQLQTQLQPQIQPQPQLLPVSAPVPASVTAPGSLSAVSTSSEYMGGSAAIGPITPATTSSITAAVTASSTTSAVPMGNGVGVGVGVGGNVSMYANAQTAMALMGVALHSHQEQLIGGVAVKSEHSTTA
From the text: as §1, §2

The target in another data set is T2, GGG (Rattus norvegicus, UniProt P06536).
T2 sequence (P06536 1-795): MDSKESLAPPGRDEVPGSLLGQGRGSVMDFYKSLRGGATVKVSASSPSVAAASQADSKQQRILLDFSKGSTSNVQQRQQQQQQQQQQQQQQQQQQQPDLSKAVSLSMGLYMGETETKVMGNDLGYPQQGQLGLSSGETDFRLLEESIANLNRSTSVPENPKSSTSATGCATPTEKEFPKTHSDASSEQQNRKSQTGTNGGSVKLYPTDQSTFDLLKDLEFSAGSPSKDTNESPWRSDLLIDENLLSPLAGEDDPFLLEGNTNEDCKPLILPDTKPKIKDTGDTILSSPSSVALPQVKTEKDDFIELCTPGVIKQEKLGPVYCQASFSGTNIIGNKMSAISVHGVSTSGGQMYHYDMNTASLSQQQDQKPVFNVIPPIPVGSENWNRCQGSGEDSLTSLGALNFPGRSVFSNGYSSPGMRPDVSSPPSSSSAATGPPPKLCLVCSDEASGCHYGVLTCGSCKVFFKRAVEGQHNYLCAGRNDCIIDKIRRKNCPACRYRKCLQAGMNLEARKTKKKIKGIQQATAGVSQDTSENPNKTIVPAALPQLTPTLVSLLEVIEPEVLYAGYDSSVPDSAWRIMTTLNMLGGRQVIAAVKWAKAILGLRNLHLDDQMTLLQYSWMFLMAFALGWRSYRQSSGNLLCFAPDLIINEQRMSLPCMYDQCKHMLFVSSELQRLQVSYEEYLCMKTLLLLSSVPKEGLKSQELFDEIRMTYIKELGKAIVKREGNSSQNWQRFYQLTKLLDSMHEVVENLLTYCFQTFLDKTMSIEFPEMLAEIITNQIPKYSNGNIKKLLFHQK
The data set is described as follows: Induction of GRE reporter G4M-77CO by GGG (glucocorticoid receptor) in 293 cells. The settings on record: normalized to hGH, SD in parentheses, 2880 min.

For `CC(C)CCC(O)[C@](C)(O)[C@H]1CC[C@@]2(O)C3=CC(=O)C4(O)CC(O)C(O)C[C@]4(C)[C@H]3C(O)C[C@]12C` (stereo partly drawn) [muristerone A, 2,3,5,11,14,20,22-Heptahydroxy-7-cholesten-6-one], the fold induction is 44.3 (8.3) fold at GXEc; 1.1 (0.4) fold with OC-33CO; 1.4 (0.1) fold on EcEcEc; “not induced” at EcEcEc (listed as muristerone); 1.0 (0.3) fold at GGG. Also, the insect moulting activity entry in the data set on insect is on record as “high”.
